Experimental data reported in patent US7354991B2, “Peptides for the diagnosis of schizophrenia” (Yeda Research and Development Co. Ltd, priority 2001, dated 2008).

Assays:
[1] = tested on: autoantibodies in plasma samples from schizophrenic patients; assay: Enzyme immunoassay: binding of biotin-labeled peptide on streptavidine coated tubes to plasma of schizophrenic patients; design: species or system human; conditions: 39 schizophrenic patients; FIG. 3
Procedure: (§1) • 1. Patients and control persons—Thirty-nine schizophrenic patients participated in this study. The following parameters were recorded: gender, age, duration of schizophrenia, number of hospitalizations, years of education and the psychiatric status (PANSS). Fifty plasma samples were obtained from a local blood bank. • 2. Plasma—Venous blood was drawn with heparin as […] from patients and control subjects. Plasma was obtained after centrifugation (4000 g; 15 mins. 4° C.). • 3. Peptide synthesis and biotin labeling—The peptides were synthesized on an Abimed 522 at a 10 micromol scale by Eurosequence b.v., (Nijenborgh 4: 9747 AG Groningen; The Netherlands) and labeled at the amino terminal with biotin containing a six carbon spacer. Peptide purity was routinely assessed by RP-HPLC and, when considered necessary, by laser desorption mass spectroscopy. The peptides were routinely dissolved in 1 ml water/DMF/DMSO (1:1:1; v/v/v). • 4. […] The absorbence was read at 450 nm spectrophotometrically. […]
(§2) Therefore, an experiment was carried out with the biotin-LVVGLCK as follows: the peptide was biotin-labeled and coated onto streptavidine coated tubes as explained above. Plasma samples of 39 schizophrenic patients and 50 control non schizophrenic individuals were tested with the coated peptide and the level of binding was determined by the enzyme immunoassay described above.

[2] = tested on: plasma samples from non schizophrenic individuals; assay: Enzyme immunoassay: binding of biotin-labeled peptide on streptavidine coated tubes to control plasma; design: species or system human; conditions: 50 control individuals; FIG. 3
Procedure: as §1, §2

level of binding, mean value and standard deviation, plasma of schizophrenic patients [1]: 1.47±0.65 O.D.
level of binding, mean value and standard deviation, plasma of non schizophrenic individuals [2]: 0.46±0.21 O.D.
Substance: LVVGLCK
